These results are taken from a melting point compilation (Tetko et al.; mined from patent text by program, amines drawn as free bases though some values may be those of a salt).

Structures are written as SMILES. A value given as a limit tells only on which side of the number the result lay.

`Cc1c(N2C(=O)C=CC2=O)cccc1N1C(=O)C=CC1=O`: the melting point – broadly, the temperature, or range, at which the solid turns liquid – was in the range of 210 to 212 °C.
Under `CCN1C(=O)[C@@H](NC(=O)OC(C)(C)C)COc2ccccc21` stands 112 °C; under `CC(C)n1c(C=O)c(-c2ccc(F)cc2)c2cccnc21`, 95 to 101 °C; under `CC(C)(C)OC(=O)N1CCC(C(=O)NCCC(=O)OCc2ccccc2)C1` (stereo not given), 83 to 84 °C.
To `NS(=O)(=O)c1cccc(C2(O)CCCCC2)c1` belongs 172 to 176 °C; to `CCCC(C1CCCCC1)n1cncc1C(=O)O` (stereo not given), 202 °C.
Under `NS(=O)(=O)c1cccc(-c2noc(-c3cnn4c(C(F)F)cc(-c5ccc(Cl)cc5)nc34)n2)c1` stands 231 °C.
Take `O=C(Nc1cccc(S(=O)(=O)NCC(F)(F)F)c1)c1cnn2c(C(F)(F)F)cc(-c3ccc(C(F)(F)F)cc3)nc12`: the melting point was determined as 259 °C.
With `O=C(Nc1ccc(OC(F)(F)F)cc1)N[C@H]1CC[C@H](O)CC1`, the melting point fell in the range of 224 to 225 °C.
`Cc1nc2c(s1)Cc1cc(Cl)ccc1-2` gave a melting point of 94 °C.
To `CC(C)(C)OC(=O)Nc1ccc(NC(=O)CCCCC2CCSS2)cc1` (stereo not given) belongs 190 to 195 °C; to `CCOCCCc1ccc(Oc2ccc3c(c2)C=C(C(=O)OC)CCS3(=O)=O)cc1`, 93 to 94 °C.
To `CC1C(=O)Nc2cc(N)c(N)cc21` (stereo not given) belongs greater than 300 °C; to `CN(C)c1ccc(Cn2cnc3c(-c4ccco4)ncnc32)cc1`, 158 to 160 °C; to `CCOC(=O)c1cn(-c2ccc(F)cc2F)c2cc(F)c(F)c(C)c2c1=O`, 161 to 164 °C.
`COC(=O)c1ccccc1OCC(O)CNCCNC(=O)C(C)C` (stereo not given) gave a melting point of 128 to 129 °C.
The compound `O=C(CNC(=O)c1ccc(C2=NOC(c3cc(Cl)cc(C(F)(F)F)c3)(C(F)(F)F)C2)c2ccccc12)NCC(F)(F)F` (stereo not given) had a melting point of 107 to 108 °C.
`COCCOc1ccc(CCC(=O)O)c(Oc2ncc(C(F)(F)F)cc2Cl)c1` had a melting point of 116 to 117 °C.
To `CCCCOc1ccc(S(=O)(=O)C2(C(=O)OCC)CCN(Cc3ccc(Cl)c(Cl)c3)CC2)cc1` belongs 86 °C; to `O=C(O)COc1ccc2c(c1)-c1nc(S(=O)(=O)CC(c3ccccc3)c3ccccc3)sc1CC2`, 183 to 185 °C.
Under `CS(=O)(=O)c1ccc(-c2cc(=O)n(CC(F)(F)F)nc2-c2ccc(F)cc2)cc1` stands 177 to 179 °C; under `COc1ccc2sc(C(N)=O)c(Cl)c2c1`, 220 to 222 °C; under `CCN(CC)CCSCC(=O)c1ccc2[nH]c3ncc(Cl)cc3c2c1`, 137 to 138 °C.
With `CC12CCC3C(C=CC4=CC(=O)CCC43CO)C1CCC2C(=O)CO` (stereo not given), the melting point lay within 161 to 164 °C.
Under `COC(=O)C(CO)NS(=O)(=O)c1ccc(OC)cc1` (stereo not given) stands 92 to 94 °C; under `Clc1ccccc1C1=NOCCS1`, 51 to 52 °C; under `CC(=O)Cc1c(C)nc2ccccc2c1N`, 130 to 133 °C.
To `CC(C)(C)NCC(O)COc1ccccc1-c1ccc(Cl)nn1` (stereo not given) belongs 93 to 94 °C.
Take `CC(C)(O)CCCCCc1cccc(C=Cc2ccc(CO)c(CO)c2)c1`: the melting point was 93 to 95 °C.
To `O=C(NC1CCCCC1)c1ccc(CCN2CC=C(c3c[nH]c(-c4ccc(F)cc4)c3-c3ccncc3)CC2)cc1` belongs 243 to 245 °C; to `O=C1Cc2c([nH]c3ccc(Br)cc23)-c2ccccc2N1`, greater than 300 °C; to `Cc1n[nH]c(-c2cc(Cl)ccc2N)n1`, 190 to 195 °C.
Under `CC(=O)NN1CCC(c2ccc(-c3cccc(N)n3)cc2)CC1` stands 224 to 227 °C.
To `CCOC(=O)c1cn(Cc2ccccc2)nc1OCc1ccc(OCc2nc(-c3ccccc3)oc2C)c(OC)c1` belongs 154 to 155 °C; to `COc1ccc2c(c1)OCC(=Cc1cccnc1)C2=O`, 126 to 128 °C; to `COC(=O)c1cccn1-c1cc2[nH]c(=O)c(=O)[nH]c2cc1Cl`, greater than 260 °C.
For the compound `COc1ccc(N2CCN(c3c(C)c(C)c4c(c3C)C(O)(c3ccccc3)C(C)(C)O4)CC2)cc1` (stereo not given), the melting point was 123 to 125 °C.
`CN1CCN(C(=O)Cn2nnnc2S)CC1`: the melting point was greater than 250 °C.
To `CCc1c([N+](=O)[O-])c(C(N)=O)nn1C1CN(C(c2ccccc2)c2ccccc2)C1` belongs 254 to 257 °C; to `COC(=O)c1nc2cc(C)cc(Cl)c2c(O)c1C(=O)OC`, 197 to 199 °C.
The compound `NCc1ccc(CN2CCN(c3ccccc3)CC2)cc1` displayed a melting point of 68 to 70 °C.
To `CCOC(=O)c1cc2cc[nH]c2cc1N` belongs greater than 250 °C; to `COc1nc(N)nc(C(F)(F)F)n1`, 161 to 164 °C; to `CC1(N)CN(c2c(F)cc3c(=O)c(C(=O)O)cn(-c4ccc(F)cc4)c3c2F)C1`, 272 to 277 °C.
To `Cc1c(Cl)c(=O)n(-c2cc(C(=O)OC(C)C)c(Cl)cc2F)c(=O)n1C` belongs 150 to 153 °C.
To `O=C(O)c1cn(C2CC2)c2nc(N3Cc4cccc(CO)c4C3)c(F)cc2c1=O` belongs greater than 300 °C; to `CCN(CC)C(=O)c1c(CO)ccc(F)c1[Si](C)(C)C`, 107 to 108 °C; to `CCN1C(=O)c2cnc(-c3ccccc3)nc2Nc2ccccc21`, 198 to 199 °C.
The compound `Cc1ccc(S(=O)(=O)N2CCC(C#N)(c3ccc(Cl)cc3Cl)CC2)cc1` yielded a melting point of 145 °C.
To `CCCC[C@H]1[C@@H](O)CC[C@@]2(C)CC[C@@H]3C[C@]12OC3(C)C` belongs 47 to 48 °C; to `Cc1ccc2oc(CC(=O)O)c(C)c2c1`, 116 to 117 °C; to `N#CCc1cc(Br)cc(Cc2nc3c(F)c(F)cc(F)c3s2)c1`, 119 to 124 °C.
To `O=Cc1ccnc(OCC=CCNC(=O)CS(=O)Cc2ccco2)c1` (stereo not given) belongs 67.6 to 69.9 °C; to `C#CCOc1ccc(C(=O)O)c(C2=NC(=O)C(C)(C(C)C)N2)n1` (stereo not given), 195 to 198 °C; to `O=[N+]([O-])c1cc(S(=O)c2ccc(-c3ccccc3)cc2)ccc1Cl` (stereo not given), 98 to 99 °C.
Under `CC(C)c1ccc2[nH]c3c(c2c1)Cc1ccccc1-3` stands 193 °C; under `CC(C)c1[nH]n(-c2c(Cl)cc(Cl)cc2Cl)c2nc(Cc3ccc(NC(=O)OCCCN(C)C)cc3)nc(=O)c1-2`, 200 to 202 °C; under `O=S(=O)(CCO)CCCS(=O)(=O)CCO`, 158 to 161 °C.
Take `CC(=O)N1CC2CC2(c2ccccc2)C1` (stereo not given): the melting point was 63 to 65 °C.
Under `CCc1c2c(nc3ccccc13)-c1cc3c(c(=O)n1C2)COC(=O)CC3(O)CC` (stereo not given) stands greater than 280 °C; under `COc1cc(C(=O)NC2CCC(N(C)C)CC2)ccc1Nc1ncc2c(n1)N(C1CCCCC1)CC(F)(F)C(=O)N2C` (stereo not given), 208 to 214 °C.
`O=C(Nc1ccc(O)cc1)Nn1cnc2ccccc2c1=O` showed a melting point of 220 to 223 °C.
As to `CC(=O)OC(C(Oc1ccccc1)n1ccnc1)C(C)(C)C` (stereo not given), the melting point lay in the range of 114 to 121 °C.
Under `O=[N+]([O-])c1ccc(Oc2ccccc2Oc2ccc(Cl)cn2)nc1` stands 82 to 84 °C; under `C[C@@H]1CN(C(=O)[C@@](C)(O)C(F)(F)F)[C@@H](C)CN1C(=O)c1ccc(F)cc1`, 177 to 178 °C.
Regarding `CC(Nc1nc2ccc(Cl)cc2cc1C(=O)O)C(=O)O` (stereo not given), the melting point lay in the range of 178 to 190 °C.
On to `S=C1CN=C(c2ccccc2Cl)c2cc(Cl)ccc2N1`, for which the melting point was 251 to 253 °C.
Compound `CC#CCOc1ccc(C(=O)NC[C@@H](C(=O)NO)N2CCCCC2)cc1` had a melting point of 144 °C.
To `CCN1CCN(c2c(F)cc3c(=O)c(C(=O)O)cn(C4CC4)c3c2C#N)CC1` belongs greater than 300 °C.
To `NS(=O)(=O)c1cnc(-c2cn(-c3cc(C(F)(F)F)cc(-c4ccc(C(F)(F)F)cc4)n3)cn2)s1` belongs greater than 266 °C; to `O=C1CSC(=S)N1c1ccccn1`, 98 °C.
For the compound `Cn1c(=O)c2c(ncn2CCCCCC#N)n(C)c1=O`, the melting point fell in the range of 86 to 88 °C.
Consider `CCN1CCCC(c2ccc(OC)c(OC)c2)C1` (stereo not given), for which the melting point was determined as 50 °C.
Under `Cc1nn(-c2c(Cl)cc(C(F)(F)F)cc2Cl)cc1C#C[Si](C)(C)C` stands 76 to 78 °C; under `Cc1cn(C)c2c1N(C(=O)CN1CCCC1)c1ccccc1NC2=O`, 210 to 212 °C.
Under `CC(=O)OCC1OC(c2nc(C(N)=O)cs2)C(OC(C)=O)C1OC(C)=O` (stereo not given) stands 103 °C; under `CCCCCCCC(Oc1ccc(C(C)CC)cc1)C(=O)Nc1c(-c2ccccc2)nc2ccccc2c1C(=O)OC` (stereo not given), 89 to 91 °C; under `CS(=O)CC(=O)c1ccc(Cl)cc1N` (stereo not given), 129 to 132 °C.
Turning to `CCCN(c1ncnc2c1ncn2C1OC(CO)C(O)C1O)n1cccc1` (stereo not given), the melting point is 136 to 138 °C.
As for `O=C1C=C(O)CC(c2ccc3c(c2)CCC3)C1` (stereo not given), the melting point was determined as 198 °C.
Take `Fc1ccc(C#Cc2ccnc(Cl)n2)cc1`: the melting point lay in the range of 125 to 126 °C.
Under `Cc1c[nH]c2c([N+](=O)[O-])ccc(Cl)c2c1=O` stands greater than 250 °C; under `C#Cc1ccc(CO[C@@H]2COc3nc([N+](=O)[O-])cn3C2)cc1`, 162 to 164 °C.
Consider `Cc1c(-c2ccncc2)oc2c1C(=O)CCC2(C)C`, for which the melting point is 86 to 88 °C.
The compound `CCOC(=O)/C(=N\OC12CC3CC(CC(C3)C1)C2)c1csc(N)n1` came in with a melting point of 152 to 153 °C.
On to `CC(=NNc1ccc(C2=NNC(=O)CC2C)cc1)c1cnsn1` (stereo not given), for which the melting point lay within 241 to 245 °C.
To `CC12CCC3c4ccc(C(=O)O)cc4CCC3C1CCC2C(=O)c1ccc(C(F)(F)F)cc1` (stereo not given) belongs 300 to 303 °C.
Take `OCCCOc1cccc(NC(=S)NCC(F)(F)F)n1`: the melting point lay within 123 to 124 °C.
Under `O=C(O)c1ccccc1S(=O)(=O)c1cc(Cl)ccc1C(=O)O` stands 276 to 277 °C; under `O=C(O)c1cc(Br)ccc1NCCC=C1c2ccccc2CCc2ccccc21`, 226 to 227 °C.
